Experimental data: ChEMBL document CHEMBL1158580, “Novel 1,3,5-triphenyl-2-pyrazolines as anti-infective agents” (2010)
≈ marks a conversion by molar mass, not a printed value.

What was measured:
Aspergillus flavus = assay: Antifungal activity against Aspergillus flavus NCIM 594 assessed as fungal growth inhibition at 2 mg/ml by microdilution method; assay type: functional
[1] = system: Mycobacterium tuberculosis; assay: Antimycobacterial activity against Mycobacterium tuberculosis H37Rv assessed as reduction in relative light units at 50 ug/ml after 72 hrs by luciferase reporter phage assay; assay type: functional; parameters: scale not given: the % may be the effect or the level left
[2] = system: Mycobacterium tuberculosis; assay: Antimycobacterial activity against Mycobacterium tuberculosis H37Rv assessed as reduction in relative light units at 100 ug/ml after 72 hrs by luciferase reporter phage assay; assay type: functional; parameters: scale not given: the % may be the effect or the level left
Proteus vulgaris = assay: Antibacterial activity against Proteus vulgaris NCIM 2813 by microdilution method; assay type: functional
Klebsiella aerogenes = assay: Antibacterial activity against Enterobacter aerogenes NCIM 5139 by microdilution method; assay type: functional
Aspergillus niger = assay: Antifungal activity against Aspergillus niger NCIM 596 assessed as fungal growth inhibition at 2 mg/ml by microdilution method; assay type: functional
Candida tropicalis = assay: Antifungal activity against Candida tropicalis NCIM 3556 assessed as fungal growth inhibition at 2 mg/ml by microdilution method; assay type: functional
Bacillus subtilis = assay: Antibacterial activity against Bacillus subtilis NCIM 2718 by microdilution method; assay type: functional
Escherichia coli = assay: Antibacterial activity against Escherichia coli NCIM 2931 by microdilution method; assay type: functional
Salmonella enterica = assay: Antibacterial activity against Salmonella typhi NCIM 2501 by microdilution method; assay type: functional, Salmonella enterica subsp. enterica serovar Typhi
Fusarium proliferatum = assay: Antifungal activity against Fusarium proliferatum NCIM 1105 assessed as fungal growth inhibition at 2 mg/ml by microdilution method; assay type: functional
Staphylococcus aureus = assay: Antibacterial activity against Staphylococcus aureus NCIM 5021 by microdilution method; assay type: functional

Row | SMILES | inhibition at 2000 µg/mL (Aspergillus flavus) | Activity [1] | Activity [2] | MIC (Proteus vulgaris) | MIC (Klebsiella aerogenes) | inhibition at 2000 µg/mL (Aspergillus niger) | inhibition at 2000 µg/mL (Candida tropicalis) | MIC (Bacillus subtilis) | MIC (Escherichia coli) | MIC (Salmonella enterica) | inhibition at 2000 µg/mL (Fusarium proliferatum) | MIC (Staphylococcus aureus)
1 | CS(=O)(=O)c1ccc(C2CC(c3ccc(Cl)cc3)=NN2c2ccccc2)cc1 (configuration not stated) | 88.4% | 0.76% | 15.46% | 304 µM (≈ 125 µg/mL) | 304 µM (≈ 125 µg/mL) | 97.5% | 95.6% | 304 µM (≈ 125 µg/mL) | 152 µM (≈ 62.5 µg/mL) | 0.304 µM (≈ 0.125 µg/mL) | 88.3% | 608 µM (≈ 250 µg/mL)
2 | CSc1ccc(C2CC(c3ccc(F)cc3)=NN2c2ccccc2)cc1 (configuration not stated) | 94.8% | 0% | 4.75% | 345 µM (≈ 125 µg/mL) | 345 µM (≈ 125 µg/mL) | 97.3% | 97.4% | 172 µM (≈ 62.3 µg/mL) | 22 µM (≈ 7.97 µg/mL) | 0.69 µM (≈ 0.25 µg/mL) | 98.7% | 690 µM (≈ 250 µg/mL)
3 | CSc1ccc(C2CC(c3ccc(Br)cc3)=NN2c2ccccc2)cc1 (configuration not stated) | 28.2% | 0% | 18.55% | 295 µM (≈ 125 µg/mL) | 295 µM (≈ 125 µg/mL) | 88.5% | 88.1% | 295 µM (≈ 125 µg/mL) | 148 µM (≈ 62.7 µg/mL) | 0.295 µM (≈ 0.125 µg/mL) | 34.3% | 591 µM (≈ 250 µg/mL)
4 | CSc1ccc(C2CC(c3ccc(Cl)cc3)=NN2c2ccccc2)cc1 (configuration not stated) | 13.1% | 0% | 17.43% | 660 µM (≈ 250 µg/mL) | 330 µM (≈ 125 µg/mL) | 93% | 94.4% | 330 µM (≈ 125 µg/mL) | 82 µM (≈ 31.1 µg/mL) | 0.33 µM (≈ 0.125 µg/mL) | 72.9% | 660 µM (≈ 250 µg/mL)
5 | COc1ccc(C2=NN(c3ccccc3)C(c3ccc(SC)cc3)C2)cc1OC (configuration not stated) | 63.8% | 32.66% | 30.3% | 309 µM (≈ 125 µg/mL) | 155 µM (≈ 62.7 µg/mL) | 9.65% | 9.12% | 309 µM (≈ 125 µg/mL) | 155 µM (≈ 62.7 µg/mL) | 0.309 µM (≈ 0.125 µg/mL) | 93.2% | 618 µM (≈ 250 µg/mL)
6 | CSc1ccc(C2CC(c3cccc([N+](=O)[O-])c3)=NN2c2ccccc2)cc1 (configuration not stated) | 19% | 0% | 5.7% | 321 µM (≈ 125 µg/mL) | 321 µM (≈ 125 µg/mL) | 65.2% | 45.9% | 321 µM (≈ 125 µg/mL) | 160 µM (≈ 62.3 µg/mL) | 0.321 µM (≈ 0.125 µg/mL) | 56.9% | 642 µM (≈ 250 µg/mL)
7 | CSc1ccc(C2CC(c3ccc(C)cc3)=NN2c2ccccc2)cc1 (configuration not stated) | 38.6% | 0% | 19.26% | 349 µM (≈ 125 µg/mL) | 349 µM (≈ 125 µg/mL) | 93% | 95.3% | 349 µM (≈ 125 µg/mL) | 174 µM (≈ 62.4 µg/mL) | 0.349 µM (≈ 0.125 µg/mL) | 83.8% | 697 µM (≈ 250 µg/mL)
8 | CS(=O)(=O)c1ccc(C2CC(c3ccccc3)=NN2c2ccccc2)cc1 (configuration not stated) | 65.8% | 1.7% | 50.71% | 332 µM (≈ 125 µg/mL) | 332 µM (≈ 125 µg/mL) | 47.2% | 30.6% | 332 µM (≈ 125 µg/mL) | 166 µM (≈ 62.5 µg/mL) | 0.332 µM (≈ 0.125 µg/mL) | 97.6% | 664 µM (≈ 250 µg/mL)
9 | CSc1ccc(C2CC(c3cccc(N)c3)=NN2c2ccccc2)cc1 (configuration not stated) | 25% | 0% | 13.79% | 347 µM (≈ 125 µg/mL) | 347 µM (≈ 125 µg/mL) | 84.4% | 86.1% | 347 µM (≈ 125 µg/mL) | 173 µM (≈ 62.2 µg/mL) | 0.347 µM (≈ 0.125 µg/mL) | 93.6% | 694 µM (≈ 249 µg/mL)
10 | CSc1ccc(C2CC(c3cccc(Br)c3)=NN2c2ccccc2)cc1 (configuration not stated) | 91.4% | 8.55% | 20.17% | 295 µM (≈ 125 µg/mL) | 295 µM (≈ 125 µg/mL) | 64.6% | 65.1% | 295 µM (≈ 125 µg/mL) | 295 µM (≈ 125 µg/mL) | 0.295 µM (≈ 0.125 µg/mL) | 90.1% | 591 µM (≈ 250 µg/mL)
11 | CSc1ccc(C2CC(c3cccc4c3OCO4)=NN2c2ccccc2)cc1 (configuration not stated) | 31.2% | 10.59% | 27.81% | 322 µM (≈ 125 µg/mL) | 322 µM (≈ 125 µg/mL) | 71.4% | 17.1% | 322 µM (≈ 125 µg/mL) | 80 µM (≈ 31.1 µg/mL) | 0.322 µM (≈ 0.125 µg/mL) | 81.3% | 644 µM (≈ 250 µg/mL)
12 | COc1cccc(C2=NN(c3ccccc3)C(c3ccc(SC)cc3)C2)c1 (configuration not stated) | 51.5% | 7.45% | 26.85% | 334 µM (≈ 125 µg/mL) | 334 µM (≈ 125 µg/mL) | 90.1% | 98.7% | 334 µM (≈ 125 µg/mL) | 167 µM (≈ 62.5 µg/mL) | 0.334 µM (≈ 0.125 µg/mL) | 96.1% | 668 µM (≈ 250 µg/mL)
13 | CSc1ccc(C2CC(c3ccccc3Cl)=NN2c2ccccc2)cc1 (configuration not stated) | 88.2% | 0% | 0% | 330 µM (≈ 125 µg/mL) | 165 µM (≈ 62.5 µg/mL) | 98.3% | 91% | 330 µM (≈ 125 µg/mL) | 165 µM (≈ 62.5 µg/mL) | 0.33 µM (≈ 0.125 µg/mL) | 93.6% | 330 µM (≈ 125 µg/mL)
14 | COc1ccc(C2=NN(c3ccccc3)C(c3ccc(SC)cc3)C2)cc1 (configuration not stated) | 48.4% | 0% | 24.87% | 334 µM (≈ 125 µg/mL) | 334 µM (≈ 125 µg/mL) | 81.1% | 92.9% | 334 µM (≈ 125 µg/mL) | 83 µM (≈ 31.1 µg/mL) | 0.334 µM (≈ 0.125 µg/mL) | 65.9% | 668 µM (≈ 250 µg/mL)
15 | CCOc1ccc(C2=NN(c3ccccc3)C(c3ccc(SC)cc3)C2)cc1 (configuration not stated) | 38.2% | 36.44% | 48.35% | 322 µM (≈ 125 µg/mL) | 322 µM (≈ 125 µg/mL) | 85.3% | 95.4% | 322 µM (≈ 125 µg/mL) | 161 µM (≈ 62.6 µg/mL) | 0.322 µM (≈ 0.125 µg/mL) | 94.3% | 643 µM (≈ 250 µg/mL)
16 | CSc1ccc(C2CC(c3ccccc3)=NN2c2ccccc2)cc1 (configuration not stated) | 30.5% | 0% | 17.65% | 726 µM (≈ 250 µg/mL) | 363 µM (≈ 125 µg/mL) | 93.5% | 73.1% | 363 µM (≈ 125 µg/mL) | 45 µM (≈ 15.5 µg/mL) | 0.726 µM (≈ 0.25 µg/mL) | 94.1% | 726 µM (≈ 250 µg/mL)
